Data published in patent US20250152564A1, “PROPYLENE KETONE-CONTAINING BIOINHIBITOR, PREPARATION METHOD THEREFOR, AND USE THEREOF” (SHANGHAI HANSOH BIOMEDICAL CO., LTD., priority 2022, published 2025).

Tests used:
FGFR1 = FGFR1 (Homo sapiens (Human), UniProt P11362); assay: TR-FRET kinase inhibition assay, FGFR1; format: biochemical; conditions: ATP Km concentration (30 μM)
Method: (§1) To measure the IC50 values of the compounds against FGFR1, FGFR2, FGFR3, FGFR4, and FGFR2 V564F at ATP Km concentrations by TR-FRET method.
(§2) TR-FRET (time-resolved fluorescence resonance energy transfer) method was used to detect the inhibitory activity of the compounds on FGFR1, FGFR2, FGFR3, FGFR4, and FGFR2 V564F kinase region fragments. The highest detection concentration of the compounds in 5 kinase experiments was 1000 nM, which was diluted in 3 folds, with a total of 11 concentrations (1000 nM to 0.017 nM). A kinase buffer (50 mM HEPES pH 7.5, 1 mM EGTA, 10 mM MgCl2, 2 mM DTT, and 0.01% Tween-20) was used to prepare 4× enzyme solution, 4× compound solutions diluted in gradient, and a 2×ATP/Peptide substrate solution. To a 384-well plate, 2.5 μL of enzyme solution and 2.5 μL of diluted […] compound solution were added, and 5 μL of 2×ATP/Peptide substrate solution was then added. After reacting at room temperature for 60 minutes for FGFR1, FGFR2, FGFR3, and FGFR2 V564F kinases, and 120 minutes for FGFR4 kinase, 10 μL of a 2× termination and detection mixed liquid prepared with 1×LANCE detection buffer with an EDTA concentration of 20 mM and a Europium-anti-phosphotyrosine (PT66) concentration of 2 nM was added to each well of the plate. After reacting at room temperature for 60 minutes for FGFR1, FGFR2, FGFR3, and FGFR4, and 30 minutes for FGFR2 V564F, the fluorescence signal value in each well of the plate was measured by a microplate reader.
(§3) 1) Inhibition rate (%): Calculation was performed on the raw data (665 nm/620 nm reading ratio) according to the following formula to obtain the inhibition rate. Inhibition rate %=[(mean value in positive control well−value in sample well)/(mean value in positive control well−mean value in negative control well)]×100, wherein the positive control well was a reaction well without a compound […], and the negative control well was a reaction wells without an enzyme.
(§4) 2) Curve fitting: Log(inhibitor) vs. response—Variable slope (four parameters) in GraphPad Prism 6 was used for fitting equation analysis of the compound concentration and the corresponding inhibition rate, and the curve was fitted to obtain the IC50 values of the compounds.

FGFR2 = FGFR2 (Homo sapiens (Human), UniProt P21802); assay: TR-FRET kinase inhibition assay, FGFR2; format: biochemical; conditions: ATP Km concentration (30 μM)
Sequence of FGFR2 (P21802 481-770): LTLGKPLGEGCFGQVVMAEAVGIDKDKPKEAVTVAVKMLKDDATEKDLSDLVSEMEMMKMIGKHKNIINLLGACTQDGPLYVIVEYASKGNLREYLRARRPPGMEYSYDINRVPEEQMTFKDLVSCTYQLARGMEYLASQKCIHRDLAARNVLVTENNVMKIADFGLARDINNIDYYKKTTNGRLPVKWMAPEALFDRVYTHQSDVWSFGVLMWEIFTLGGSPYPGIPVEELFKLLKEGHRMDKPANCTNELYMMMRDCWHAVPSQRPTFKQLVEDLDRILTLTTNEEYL
Method: as §1, §2, §3, §4

FGFR2 V564F = FGFR2 V564F (Homo sapiens (Human), UniProt P21802, V564F); assay: TR-FRET kinase inhibition assay, FGFR2 V564F; format: biochemical; conditions: ATP Km concentration (20 μM)
Sequence of FGFR2 V564F (P21802 481-770 V564F): as the sequence (P21802 481-770) above, with V84F counted along it
Method: as §1, §2, §3, §4

[1] = test system: BaF3 FGFR2-BICC1 V564F cells; assay: CellTiter-Glo cell proliferation inhibition, BaF3 FGFR2-BICC1 V564F; format: cell-based; conditions: Mus musculus, 72 h, read-out: BaF3 FGFR2-BICC1 V564F inhibitory activity IC50
Method: To evaluate inhibitory effects of the compounds on the proliferation of NCI-H716, SNU-16 and BaF3-FGFR2-BICC1 V564F cells by cell proliferation inhibition experiments.
CellTiter-Glo method was used to detect inhibitory effects of the compounds on the proliferation of NCI-H716, SNU-16 and BaF3 FGFR2-BICC1 V564F cells. The highest detection concentration of the compounds was 1000 nM, which was diluted in 3 folds, with a total of 9 concentrations (1000 nM to 0.15 nM). After the cells were plated at an appropriate density, compounds were added the next day and incubated for 72 h before detection using the […] detection kit.
as §3, with “(%):” for “(%): Calculation was performed on the raw data (665 nm/620 nm reading ratio) according to the following formula to obtain the inhibition rate.”
as §4

[2] = Pharmacokinetic experiment in SD rats after oral administration; format: in vivo; conditions: 5 mg/kg, plasma
Method: To study the pharmacokinetic behavior of the compounds of the present invention in the rat body (plasma) after oral administration at a dose of 5 mg/kg using SD rats as test animals.
3 SD rats/group, male, from Shanghai Jiesijie Experimental Animal Co., Ltd., animal production license number (SCXK (Shanghai) 2013-0006 N0.311620400001794).
PO, 10% solutol HS15-0.5% CMC-Na was dissolved by ultrasound and prepared into a clear solution or homogeneous suspension.
3 SD rats/group, male; p.o. respectively at a dose of 5 mg/kg and an administration volume of 10 mL/kg after the […] were fasted overnight.
After oral administration to rats, at 0.25, 0.5, 1, 2, 4, 6, 8 and 24 hours, 0.2 mL of blood was collected from the jugular vein, placed in an EDTA-K2 test tube, centrifuged at 6000 rpm for 6 min at 4° C. to separate the plasma, which was stored at −80° C.
1) 100 μL of acetonitrile was added to 20 μL of plasma sample for pelleting, and it was mixed and centrifuged at 3500×g for 5-20 min.
2) The treated supernatant solution was taken and subjected to LC/MS/MS to analyze the concentrations of the test compounds. LC/MS/MS analysis instrument: AB Sciex API 4000 Qtrap.
• Liquid phase conditions: Shimadzu LC-20AD pump • Chromatographic column: Waters Xbridge C18 5 μm, 4.6×50 mm mobile phase: liquid A was 0.1% aqueous formic acid solution, and liquid B was methanol • Flow rate: 1.0 mL/min • Elution time: 0-4.0 min, the eluent was as follows: […]

Sequence of FGFR1 (P11362 478-767): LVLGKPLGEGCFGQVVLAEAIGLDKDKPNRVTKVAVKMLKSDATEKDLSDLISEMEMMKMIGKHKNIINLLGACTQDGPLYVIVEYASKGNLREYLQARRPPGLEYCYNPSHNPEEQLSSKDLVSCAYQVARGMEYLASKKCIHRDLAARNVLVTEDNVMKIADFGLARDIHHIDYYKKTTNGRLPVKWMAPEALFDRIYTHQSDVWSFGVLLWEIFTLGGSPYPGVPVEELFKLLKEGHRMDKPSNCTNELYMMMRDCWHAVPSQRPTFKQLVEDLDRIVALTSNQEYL

IC50 (FGFR2) [nM] | IC50 (FGFR2 V564F) [nM] | IC50 [1] [nM] | Structure (SMILES) | also measured
1.5 | 3.6 |  | C=CC(=O)N1CC[C@H](n2nc(C#Cc3c(F)cc4c(ncn4C)c3F)c3c(N)ncc(-c4cscn4)c32)C1 [Example 29, (S)-1-(3-(4-amino-3-((4,6-difluoro-1-methyl-1H-benzo[d]imidazol-5-yl)ethynyl)-7-(thiazol-4-yl)-1H-pyrazolo[4,3-c]pyridin-1-yl)pyrrolidin-1-yl)prop-2-en-1-one] | IC50 (FGFR1): 7.1 nM
1.8 | 0.7 | 3.5 | C=CC(=O)N1CC[C@H](n2nc(C#Cc3ccc4c(c3)ncn4CC)c3c(N)ncc(C(C)=O)c32)C1 [Example 56, (S)-1-(3-(7-acetyl-4-amino-3-((1-ethyl-1H-benzo[d]imidazol-5-yl)ethynyl)-1H-pyrazolo[4,3-c]pyridin-1-yl)pyrrolidine-1-methyl)prop-2-en-1-one] | 
 | 18.4 | 11.5 | C=CC(=O)N1CC[C@H](n2nc(C#Cc3ccc4oc(C5CC5)nc4c3)c3c(N)ncnc32)C1 [B, reference compound] | 
 | 1.8 |  | C=CC(=O)N1CC[C@H](n2nc(C#Cc3cc4ncn(C5CC5)c4cc3F)c3c(N)ncc(C4CC4)c32)C1 [Example 52, (S)-1-(3-(4-amino-7-cyclopropyl-3-((1-cyclopropyl-6-fluoro-1H-benzo[d]imidazol-5-yl)alkynyl)-1H-pyrazolo[4,3-c]pyridin-1-yl)pyrrolidin-1-yl)prop-2-en-1-one] | 
1.7 | 0.8 | 1.4 | C=CC(=O)N1CC[C@H](n2nc(C#Cc3cc4ncn(C5CC5)c4cc3F)c3c(N)ncc(C(=O)CC)c32)C1 [Example 48, (S)-1-(3-(4-amino-3-((1-cyclopropyl-6-fluoro-1H-benzo[d]imidazol-5-yl)ethynyl)-7-propionyl-1H-pyrazolo[4,3-c]pyridin-1-yl)pyrrolidin-1-yl)prop-2-en-1-one] | AUC(0-t) ([2]; male, Sprague-Dawley (SD), rat, po, read-out: Area under the curve AUC0-t): 4120 ng·h/mL; AUC(0-inf) ([2]; male, Sprague-Dawley (SD), rat, po, read-out: Area under the curve AUC0-∞): 4150 ng·h/mL; half-life ([2]; male, Sprague-Dawley (SD), rat, po, read-out: Half-life t1/2 (converted)): 3.9 h; MRT ([2]; male, Sprague-Dawley (SD), rat, po, read-out: Mean residence time MRT): 4.2 h; Cmax ([2]; male, Sprague-Dawley (SD), rat, po, read-out: Plasma concentration Cmax): 795 ng/mL; Time to peak tmax ([2]; p.o.): 2 h
 | 1.9 |  | C=CC(=O)N1CC[C@H](n2nc(C#Cc3ccc4c(c3)ncn4C3CC3)c3c(N)ncc(C(=O)C(C)C)c32)C1 [Example 40] | 
 | 3.9 |  | C=CC(=O)N1CC[C@H](n2nc(C#Cc3ccc4c(c3)ncn4C3CC3)c3c(N)ncc(-c4ccn(C)n4)c32)C1 [Example 42, (S)-1-(3-(4-amino-3-((1-cyclopropyl-1H-benzo[d]imidazol-5-yl)ethynyl)-7-(1-methyl-1H-pyrazol-3-yl)-1H-pyrazolo[4,3-c]pyridin-1-yl)pyrrolidine-1-methyl)prop-2-en-1-one] | 
 | 3.3 |  | C=CC(=O)N1CC[C@H](n2nc(C#Cc3cc4ncn(C5CC5)c4cc3F)c3c(N)ncc(C)c32)C1 [Example 51, (S)-1-(3-(4-amino-3-((1-cyclopropyl-6-fluoro-1H-benzo[d]imidazol-5-yl)ethynyl)-7-methyl-1H-pyrazolo[4,3-c]pyridin-1-yl)pyrrolidin-1-yl)prop-2-en-1-one] | 
12.8 | 6.1 | 7.4 | C=CC(=O)N1CC[C@H](n2nc(C#Cc3cc4ncn(C)c4cc3F)c3c(N)nccc32)C1 [A, reference compound] | 
3.5 | 1.9 | 4.9 | C=CC(=O)N1CC[C@H](n2nc(C#Cc3ccc4c(c3)nc(C)n4C3CC3)c3c(N)ncc(C(C)=O)c32)C1 [Example 53, (S)-1-(3-(7-acetyl-4-amino-3-((1-cyclopropyl-2-methyl-1H-benzo[d]imidazol-5-yl)ethynyl)-1H-pyrazolo[4,3-c]pyridin-1-yl)pyrrolidin-1-yl)prop-2-en-1-one] | 
 | 1 | 0.5 | C=CC(=O)N1CC[C@H](n2nc(C#Cc3cc4ncn(C5CC5)c4cc3Cl)c3c(N)ncc(C(=O)C(C)C)c32)C1 [Example 47] | 
 | 1.6 | 1.6 | C=CC(=O)N1CC[C@H](n2nc(C#Cc3cc4ncn(C)c4cc3Cl)c3c(N)ncc(C(C)=O)c32)C1 [Example 67, (S)-1-(3-(7-acetyl-4-amino-3-((6-chloro-1-methyl-1H-benzo[d]imidazol-5-yl)ethynyl)-1H-pyrazolo[4,3-c]pyridin-1-yl)pyrrolidin-1-yl)prop-2-en-1-one] | 
3.4 | 1.1 | 4 | C=CC(=O)N1CC[C@H](n2nc(C#Cc3ccc4c(c3)ncn4CC)c3c(N)ncc(C(=O)C(C)C)c32)C1 [Example 59] | 
 | 2.8 |  | C=CC(=O)N1CC[C@H](n2nc(C#Cc3cc4ncn(C)c4cc3F)c3c(N)ncc(C4CC4)c32)C1 [Example 20, (S)-1-(3-(4-amino-7-cyclopropyl-3-((6-fluoro-1-methyl-1H-benzo[d]imidazol-5-yl)ethynyl)-1H-pyrazolo[4,3-c]pyridin-1-yl)pyrrolidin-1-yl)prop-2-en-1-one] | 
2.4 | 1.2 |  | C=CC(=O)N1CC[C@H](n2nc(C#Cc3cc4ncn(CC)c4cc3F)c3c(N)ncc(-c4cscn4)c32)C1 [Example 62, (S)-1-(3-(4-amino-3-((1-ethyl-6-fluoro-1H-benzo[d]imidazol-5-yl)ethynyl)-7-(thiazol-4-yl)-1H-pyrazolo[4,3-c]pyridin-1-yl)pyrrolidin-1-yl)prop-2-en-1-one] | 
2.4 | 1.3 |  | C=CC(=O)N1CC[C@H](n2nc(C#Cc3cc4ncn(C)c4cc3F)c3c(N)ncc(-c4cscn4)c32)C1 [Example 14, 1-[(3S)-3-[4-amino-3-[2-(6-fluoro-1-methyl-benzo[d]imidazol-5-yl)ethynyl]-7-thiazol-4-yl-pyrazolo[4,3-c]pyridin-1-yl]pyrrolidin-1-yl]-2-propen-1-one] | 
 | 1.1 |  | C=CC(=O)N1CC[C@H](n2nc(C#Cc3cc4ncn(C5CC5)c4cc3Cl)c3c(N)ncc(-c4ccn(C)n4)c32)C1 [Example 43, (S)-1-(3-(4-amino-3-((6-chloro-1-cyclopropyl-1H-benzo[d]imidazol-5-yl)ethynyl)-7-(1-methyl-1H-pyrazol-3-yl)-1H-pyrazolo[4,3-c]pyridin-1-yl)pyrrolidin-1-yl)prop-2-en-1-one] | 
2.6 | 1 | 2.1 | C=CC(=O)N1CC[C@H](n2nc(C#Cc3cc4ncn(C5CC5)c4cc3F)c3c(N)ncc(C(=O)C(C)C)c32)C1 [Example 50] | 
